This is an account of results in patent publication US20100048617A1, “COMPOUNDS” (SmithKline Beecham Corp., priority 2006, published 2010).

This experiment deals with T1, SCD (SCD-containing rat microsomes) (Rattus norvegicus, UniProt P07308).
T1 construct: SCD-containing rat microsomes (2 μg protein); from tissue
T1 sequence (P07308 1-358): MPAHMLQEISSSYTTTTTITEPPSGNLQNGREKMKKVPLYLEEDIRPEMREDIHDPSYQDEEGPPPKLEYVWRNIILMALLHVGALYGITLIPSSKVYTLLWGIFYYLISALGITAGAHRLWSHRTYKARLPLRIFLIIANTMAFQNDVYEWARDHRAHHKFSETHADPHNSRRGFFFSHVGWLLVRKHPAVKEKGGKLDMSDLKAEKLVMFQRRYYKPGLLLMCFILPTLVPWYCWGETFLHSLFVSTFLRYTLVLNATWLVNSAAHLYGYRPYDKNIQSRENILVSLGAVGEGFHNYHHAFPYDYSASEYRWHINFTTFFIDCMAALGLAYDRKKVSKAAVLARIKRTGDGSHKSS
Description: in vitro assay for SCD activity based on production of [3H]H2O from [9,10-3H] stearoyl Coenzyme A. Type of experiment: biochemical. The settings on record: SCD-containing rat microsomes (2 μg protein), substrate 1 μM, 6 min incubation, 5 min preincubation with compound; read-out: average pIC50 value (converted). As to the method: The compounds of the present invention may be analysed in vitro for SCD activity using an assay based on the production of [^3H]H2O, which is released during the enzyme-catalyzed generation of the monounsaturated fatty acyl CoA product. The assay is performed in a 96-well filtration plates. The titrated substrate used in the assay is the [9,10-^3H] stearoyl Coenzyme A. After incubation for 6 minutes of SCD-containing rat microsomes (2 μg protein) and substrate (1 μM), the labelled fatty acid acyl-CoA species and microsomes are absorbed with charcoal and separated from [^3H]H2O by centrifugation. The formation of [^3H]H2O is used as a measure of SCD activity. Compounds at concentrations starting at 10 μM to 0.1 nM or vehicle (DMSO) are preincubated for 5 minutes with the microsomes before addition of the substrate. The concentration-responses are fitted with sigmoidal curves to obtain IC50 values.

Where a name gives a salt, the structure may show the parent alone.

As for `COc1ccc(Cl)cc1Cn1nc(C(=O)Nc2ccc3c(c2)CCNC3)cc1C` [1-{[5-chloro-2-(methyloxy)phenyl]methyl}-5-methyl-N-(1,2,3,4-tetrahydro-6-isoquinolinyl)-1H-pyrazole-3-carboxamide hydrochloride], the IC50 was 3.16 to 10 µM. With `COc1ccc(OCC(C)C)c(Cn2nc(C(=O)Nc3ccc4c(c3)CCNC4)cc2C)c1` [5-methyl-1-({5-(methyloxy)-2-[(2-methylpropyl)oxy]phenyl}methyl)-N-(1,2,3,4-tetrahydro-6-isoquinolinyl)-1H-pyrazole-3-carboxamide hydrochloride] the figure was > 10 µM.
